Assay results from the supplement of paper PMC10307832.

Assays:
Experiment in all cases: relative viability (nuclei count vs DMSO), 5 days (fraction); higher = more cells survive
[1] = compound: CC1=C(C(=NN1)C)CC2=C(C3=C(S2)N(C(=O)N(C3=O)C)CC(C)C)C(=O)N4C[C@@H](CO4)O + O=C(CCCCCCC(=O)Nc1ccccc1)NO [Vorinostat] (partner 1 µM)
Summary of the method: (§1)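 After 5 days of treatment, lung cancer cells in 1536-well plates were fixed and stained in a single step (final 0.05% Triton X-100, 1% formaldehyde, 1 ug/ml Hoechst) and their nuclei counted on 4× images. Treatment had been applied by pin tool the day after seeding as one drug alone or as a fixed anchor-drug dose with five library-drug doses (not always all listed) in √10 steps. Relative viability is the nuclei count of treated wells divided by that of vehicle wells, and values are medians of duplicate plates.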

IDH-C35 + Navitoclax = compound: Cc1ccccc1C(C(=O)NC1CCCCC1)N(C(=O)Cn1ccnc1C)c1cccc(F)c1 [IDH-C35] + CC1(C)CCC(c2ccc(Cl)cc2)=C(CN2CCN(c3ccc(C(=O)NS(=O)(=O)c4ccc(N[C@H](CCN5CCOCC5)CSc5ccccc5)c(S(=O)(=O)C(F)(F)F)c4)cc3)CC2)C1 [Navitoclax] (partner 0.5 µM)
Summary of the method: as §1

IDH-C35 + Linsitinib = compound: Cc1ccccc1C(C(=O)NC1CCCCC1)N(C(=O)Cn1ccnc1C)c1cccc(F)c1 [IDH-C35] + C[C@]1(O)C[C@@H](c2nc(-c3ccc4ccc(-c5ccccc5)nc4c3)c3c(N)nccn32)C1 [Linsitinib] (partner 1 µM)
Summary of the method: as §1

[2] = compound: CC1=C(C(=NN1)C)CC2=C(C3=C(S2)N(C(=O)N(C3=O)C)CC(C)C)C(=O)N4C[C@@H](CO4)O + COc1cccc2cc(-c3nc([C@H]4CC[C@H](C(=O)O)CC4)n4ncnc(N)c34)[nH]c12 [OSI-027] (partner 0.5 µM)
Summary of the method: as §1

Cell Line	relative viability ([1]; first compound 0.0025 µM)	relative viability ([1]; first compound 0.007906 µM)	relative viability ([1]; first compound 0.025 µM)	relative viability ([1]; first compound 0.07906 µM)	relative viability ([1]; first compound 0.25 µM)	relative viability (IDH-C35 + Navitoclax; first compound 0.08 µM)	relative viability (IDH-C35 + Navitoclax; first compound 0.253 µM)	relative viability (IDH-C35 + Navitoclax; first compound 0.8 µM)	relative viability (IDH-C35 + Navitoclax; first compound 2.53 µM)	relative viability (IDH-C35 + Navitoclax; first compound 8 µM)	relative viability (IDH-C35 + Linsitinib; first compound 0.08 µM)	relative viability (IDH-C35 + Linsitinib; first compound 0.253 µM)	relative viability (IDH-C35 + Linsitinib; first compound 0.8 µM)	relative viability (IDH-C35 + Linsitinib; first compound 2.53 µM)	relative viability (IDH-C35 + Linsitinib; first compound 8 µM)	relative viability ([2]; first compound 0.0025 µM)	relative viability ([2]; first compound 0.007906 µM)	relative viability ([2]; first compound 0.025 µM)	relative viability ([2]; first compound 0.07906 µM)	relative viability ([2]; first compound 0.25 µM)
LK-2	0.342	0.272	0.208	0.266	0.301	0.88	0.834	0.866	0.911	0.903	0.679	0.465	0.43	0.746	0.619	0.201	0.184	0.204	0.189	0.228
LOU-NH91	1.03	0.875	0.939	1.07	1	0.69	0.78	0.722	0.635	0.735	0.944	0.998	0.968	0.927	0.973	0.719	0.714	0.715	0.84	0.727
LU99A	0.462	0.526	0.505	0.46	0.575	0.702	0.814	0.871	0.925	0.781	0.569	0.536	0.506	0.593	0.6	0.339	0.335	0.347	0.309	0.294
LXF-289	0.881	0.748	0.829	0.671	0.762	0.968	0.931	0.961	0.896	0.987	0.94	0.971	0.936	0.949	0.956	0.902	0.785	0.734	0.819	0.749
NCI-H23	0.76	0.627	0.638	0.587	0.737	0.792	0.828	0.883	0.992	0.807	0.514	0.541	0.541	0.523	0.505	0.814	0.557	0.701	0.475	0.602
NCI-H322M	0.876	0.821	0.857	0.953	0.801	1.34	1.12	1.23	1.15	1.2	0.965	0.878	0.81	0.95	0.794	0.529	0.539	0.483	0.64	0.5
NCI-H441	0.959	0.774	0.716	0.696	1.12	0.694	–	0.568	0.582	0.675	0.589	0.518	0.404	0.651	0.633	0.601	0.634	0.707	0.665	0.677
NCI-H460	0.859	0.689	0.634	0.723	0.857	1.26	1.19	1.06	1.07	1.21	0.909	0.872	0.843	0.749	0.663	0.718	0.821	0.683	0.648	0.779
NCI-H520	0.678	0.777	0.594	0.577	0.684	1.02	1.15	1.07	0.933	1.21	0.915	0.969	1	0.888	0.907	0.276	0.281	0.27	0.277	0.193
NCI-H596	0.783	0.652	0.625	0.697	0.479	1.1	1	0.925	0.867	0.962	1.14	1.14	0.986	1.14	1.13	0.721	0.822	0.889	0.803	0.715
NCI-H647	0.564	0.744	0.473	0.617	0.606	1.26	1.18	0.916	1.04	1.12	1.03	1.29	1.18	1.1	1.1	0.727	0.805	0.805	0.769	0.569
NCI-H727	1.16	1.25	1.05	1.05	1.13	0.377	0.429	0.371	0.399	0.35	0.202	0.248	0.328	0.249	0.254	0.731	0.504	0.505	0.586	0.708
NCI-H838	0.696	0.75	0.691	0.777	0.704	1.15	1.11	1.19	1.15	1.11	1.08	0.959	0.949	1.04	0.943	0.396	0.451	0.409	0.384	0.387
NCI-H1355	0.72	0.632	0.66	0.55	0.662	0.952	0.928	0.934	0.938	0.996	0.896	0.859	0.848	0.773	0.892	0.458	0.441	0.425	0.464	0.39
NCI-H1395	0.75	0.663	0.508	0.756	0.683	1.14	1.05	1.49	1.08	1.16	1.2	1.04	1.1	1.09	0.956	0.658	0.603	0.409	0.578	0.58
NCI-H1437	0.796	0.882	0.833	0.868	0.906	1.08	1.07	1.08	1.19	0.975	0.998	1.14	0.989	1.14	1.03	0.894	0.892	0.867	0.93	0.857

Cell Line	relative viability ([1]; first compound 0.0025 µM)	relative viability ([1]; first compound 0.007906 µM)	relative viability ([1]; first compound 0.025 µM)	relative viability ([1]; first compound 0.07906 µM)	relative viability ([1]; first compound 0.25 µM)	relative viability (IDH-C35 + Navitoclax; first compound 0.08 µM)	relative viability (IDH-C35 + Navitoclax; first compound 0.253 µM)	relative viability (IDH-C35 + Navitoclax; first compound 0.8 µM)	relative viability (IDH-C35 + Navitoclax; first compound 2.53 µM)	relative viability (IDH-C35 + Navitoclax; first compound 8 µM)	relative viability (IDH-C35 + Linsitinib; first compound 0.08 µM)	relative viability (IDH-C35 + Linsitinib; first compound 0.253 µM)	relative viability (IDH-C35 + Linsitinib; first compound 0.8 µM)	relative viability (IDH-C35 + Linsitinib; first compound 2.53 µM)	relative viability (IDH-C35 + Linsitinib; first compound 8 µM)	relative viability ([2]; first compound 0.0025 µM)	relative viability ([2]; first compound 0.007906 µM)	relative viability ([2]; first compound 0.025 µM)	relative viability ([2]; first compound 0.07906 µM)	relative viability ([2]; first compound 0.25 µM)
NCI-H1651	0.504	0.601	0.505	0.545	0.581	1.03	1.01	0.972	1.03	1.01	0.918	0.925	0.966	1.02	0.903	0.726	0.734	0.846	0.659	0.662
NCI-H1666	1.08	1.12	1.03	1.04	1.05	1.03	0.977	0.961	1.07	0.881	0.775	0.79	0.888	0.904	0.941	0.881	0.927	0.811	0.8	0.944
NCI-H1734	0.88	0.868	0.768	0.745	0.76	0.9	0.849	0.827	0.796	0.791	0.891	0.862	0.839	0.772	0.833	0.682	0.592	0.65	0.617	0.624
NCI-H1755	0.792	0.781	0.724	0.632	0.719	0.981	1.01	0.973	0.976	0.96	0.952	0.946	0.984	1.02	0.962	0.767	0.743	0.684	0.702	0.704
NCI-H1793	0.72	0.959	0.757	0.733	0.747	0.549	0.446	0.444	0.456	0.608	0.908	0.808	0.859	0.85	0.773	0.298	0.289	0.262	0.242	0.231
NCI-H1915	0.573	0.541	0.488	0.51	0.588	0.772	0.753	0.759	0.729	0.767	1.13	1.12	1.1	1.07	1.09	0.647	0.667	0.646	0.694	0.659
NCI-H1944	0.6	0.704	0.576	0.522	0.594	1.02	1.04	0.942	1.05	1.04	1.07	1.29	1.27	1.09	1.1	0.434	0.45	0.416	0.427	0.391
NCI-H1975	0.754	0.743	0.729	0.747	0.786	1.12	1.34	1.03	1.09	1.01	0.854	0.937	0.93	0.92	0.878	0.751	0.648	0.802	0.804	0.879
NCI-H1993	1.03	0.664	0.685	0.623	0.711	0.943	0.878	0.919	1.1	1.13	0.758	0.776	0.817	0.745	0.798	0.515	0.539	0.541	0.463	0.57
NCI-H2009	0.703	0.785	0.735	0.756	0.701	1.22	1.16	1.12	1.17	1.16	1.18	1.24	1.16	1.23	1.14	0.742	0.701	0.616	0.706	0.695
NCI-H2023	0.621	0.797	0.645	0.545	0.636	1.09	1.01	0.979	0.962	1.1	0.719	0.612	0.712	0.646	0.557	0.465	0.423	0.481	0.473	0.393
NCI-H2085	0.829	0.791	0.78	0.797	0.514	1.21	1.25	1.15	1.14	1.21	0.807	0.815	0.922	0.992	0.846	0.722	0.685	0.759	0.736	0.447
NCI-H2087	0.841	0.581	0.578	0.462	0.875	1.13	1.02	0.896	0.867	0.999	1.03	0.826	0.744	0.87	0.881	0.72	0.506	0.517	0.564	0.54
NCI-H2126	0.919	0.894	0.844	0.84	0.674	0.906	0.864	0.849	0.866	0.857	0.765	0.667	0.712	0.726	0.703	0.78	0.669	0.787	0.661	0.684
NCI-H2228	0.559	0.811	0.681	0.649	0.9	0.915	1.18	1.29	0.875	0.706	0.596	0.496	0.629	0.668	0.749	0.68	0.61	0.683	0.609	0.649
